Source: US20070167526A1, “Topical mecamylamine formulations for ocular administration and uses thereof” (priority 2005, published 2007)
Read-outs that look alike come from different tables or passages of the source.

Tests used:
[1] = Ocular bioavailability following topical ocular administration of 2% isotonic or in situ gel-forming solution (Examples 5, 6); type: in vivo, New Zealand White rabbit; settings: rabbit
Source text: The objective of this study was to determine the pharmacokinetics of mecamylamine, administered either as an isotonic solution (prepared as in Example 3) or in situ gel-forming solution (as prepared in Example 4), in the plasma, vitreous humor and retina of the eyes when applied topically to the surface of the eye.
The study comprised 2 groups (N=4/group; 8 rabbits total) of male NZW rabbits each weighing approximately 2-3 kg and obtained from Kralek Farms (Turlock, Calif.). […] For both groups, samples of the vitreous(≧0.1 ml) were withdrawn at 6 time points (one withdrawal per eye): pre-dose, 30 min, 1 (sacrifice), 3, 6, 12, and 24 (sacrifice) hr. At all time points, only duplicate vitreous fluid samples (each coming from different eye from different animals) were collected in order to minimize pain and damage to rabbit eyes.
Blood for plasma(≧0.5 ml) and intra-vitreal fluid (˜0.1 ml) were collected at 0, 30, 60 min from each animal with sacrifice for 2 animals/group at 60 minutes. […]
A 0.5 mg/mL stock of mecamylamine hydrochloride USP in DMSO was prepared and used as the working standard to produce the calibration standards for quantification of the mecamylamine content in various samples collected as described above. […]
Each tissue sample collected was weighed. […] The samples were analyzed using LC/MS/MS and quantified using the calibration standards prepared in plasma as described above.

[2] = 6-hour ocular pharmacokinetics of 2% Mecamylamine GELRITE solution following topical instillation (Example 10); type: in vivo, New Zealand White rabbit; settings: rabbit; for concentration at 1 h / concentration at 3 h / concentration at 6 h: female, New Zealand White, topical; for Mecamylamine concentration in blood Cell Fraction, Mean / Mecamylamine concentration in blood Plasma, Mean: Pre
Description: The time of each dose administration was recorded. There was no mortality in the treatment group.

[3] = tested on: healthy adults; experiment: Phase 1 ocular and systemic safety of mecamylamine ophthalmic solution (Example 11); type: in vivo; settings: human
Source text: A phase 1 study entitled: “A Phase 1, Double-Masked, Randomized, 1-Day and 14-Day Escalating Dose Study to Assess the Ocular and Systemic Safety of Mecamylamine Ophthalmic Solution” was initiated in the United States in healthy adults. The safety objectives of this study were to evaluate the ocular and systemic safety of 4 concentrations of mecamylamine ophthalmic solution following 1-day (administered twice) and 14-day (BID) administration. The dose levels of mecamylamine ophthalmic solution evaluated were 0.03%, 0.1%, 0.3%, and 1%. A summary of the composition of the mecamylamine ophthalmic solution and placebo formulation is shown below in Table 7.
In the 1-day portion of the study, 10 subjects in each group were dosed in a single eye on two occasions with 6 hours between dosing. […] Subjects were evaluated for local (ocular) safety and tolerability based upon evaluation of ocular symptoms, ocular comfort, best-corrected visual acuity, biomicroscopy with fluorescein staining, measurement of intraocular pressure (IOP) by Goldman applanation tonometry, ophthalmoscopy, pupil size, and Schirmer's Test. They were also evaluated for systemic safety based upon assessment of physical examination, 12-lead ECG, vital signs, adverse events, hematology, clinical chemistry, and, urinalysis.

CNC1(C)C2CCC(C2)C1(C)C (stereo not drawn) [mecamylamine, N-2,3,3-tetramethylbicyclo(2.2.1)heptan-2-amine]
retinal/choroidal tissue:plasma ratio, topical compared to systemic administration [1]: at least 40 fold
levels of mecamylamine in erythrocytes (red blood cells) versus plasma ([1]; topical ocular): comparable
concentration at 1 h ([2]; aqueous humor, 2% in GELRITE, 2 × 50 μL, OS (unilateral) treated eye, 1 hr, read-out: Mecamylamine concentration in Aqueous humor, Mean): 2510 ng/g
concentration at 1 h ([2]; aqueous humor, 2% in GELRITE, 2 × 50 μL, OU (bilateral), 1 hr, read-out: Mecamylamine concentration in Aqueous humor, Mean): 3910 ng/g
concentration at 3 h ([2]; aqueous humor, 2% in GELRITE, 2 × 50 μL, OU (bilateral), 3 hr, read-out: Mecamylamine concentration in Aqueous humor, Mean): 500 ng/g
concentration at 6 h ([2]; aqueous humor, 2% in GELRITE, 2 × 50 μL, OU (bilateral), 6 hr, read-out: Mecamylamine concentration in Aqueous humor, Mean): 48.9 ng/g
concentration at 1 h ([2]; aqueous humor, fellow (vehicle) eye of unilaterally dosed animals, 1 hr, read-out: Mecamylamine concentration in Aqueous humor, Mean): 9.7 ng/g
concentration at 1 h ([2]; blood cell fraction, group MEC OS 1 hr, Post, read-out: Mecamylamine concentration in blood Cell Fraction, Mean): 15 ng/mL
concentration at 1 h ([2]; blood cell fraction, group MEC OU 1 hr, Post, read-out: Mecamylamine concentration in blood Cell Fraction, Mean): 33.1 ng/mL
concentration at 3 h ([2]; blood cell fraction, group MEC OU 3 hr, Post, read-out: Mecamylamine concentration in blood Cell Fraction, Mean): 7 ng/mL
concentration at 6 h ([2]; blood cell fraction, group MEC OU 6 hr, Post, read-out: Mecamylamine concentration in blood Cell Fraction, Mean): 1.2 ng/mL
concentration at 1 h ([2]; choroid (treated eye), 2% in GELRITE, 2 × 50 μL, OS (unilateral) treated eye, 1 hr, read-out: Mecamylamine concentration in Choroid, Mean): ~2800 ng/g
concentration at 1 h ([2]; choroid of the fellow (vehicle) eye, fellow (vehicle) eye of unilaterally dosed animals, 1 hr, read-out: Mecamylamine concentration in Choroid, Mean): ~700 ng/g
concentration at 1 h ([2]; choroid, 2% in GELRITE, 2 × 50 μL, OU (bilateral), 1 hr, read-out: Mecamylamine concentration in Choroid, Mean): ~14000 ng/g
concentration at 6 h ([2]; choroid, 2% in GELRITE, 2 × 50 μL, OU (bilateral), 6 hr, read-out: Mecamylamine concentration in Choroid, Mean): ~260 ng/g
concentration at 1 h ([2]; cornea, 2% in GELRITE, 2 × 50 μL, OS (unilateral) treated eye, 1 hr, read-out: Mecamylamine concentration in Cornea, Mean): 9600 ng/g
concentration at 1 h ([2]; cornea, 2% in GELRITE, 2 × 50 μL, OU (bilateral), 1 hr, read-out: Mecamylamine concentration in Cornea, Mean): 17900 ng/g
concentration at 3 h ([2]; cornea, 2% in GELRITE, 2 × 50 μL, OU (bilateral), 3 hr, read-out: Mecamylamine concentration in Cornea, Mean): 3820 ng/g
concentration at 6 h ([2]; cornea, 2% in GELRITE, 2 × 50 μL, OU (bilateral), 6 hr, read-out: Mecamylamine concentration in Cornea, Mean): 1230 ng/g
concentration at 1 h ([2]; cornea, fellow (vehicle) eye of unilaterally dosed animals, 1 hr, read-out: Mecamylamine concentration in Cornea, Mean): 652 ng/g
concentration at 1 h ([2]; plasma, group MEC OS 1 hr, Post, read-out: Mecamylamine concentration in blood Plasma, Mean): 16.3 ng/mL
concentration at 1 h ([2]; plasma, group MEC OU 1 hr, Post, read-out: Mecamylamine concentration in blood Plasma, Mean): 37.8 ng/mL
concentration at 3 h ([2]; plasma, group MEC OU 3 hr, Post, read-out: Mecamylamine concentration in blood Plasma, Mean): 8.3 ng/mL
concentration at 6 h ([2]; plasma, group MEC OU 6 hr, Post, read-out: Mecamylamine concentration in blood Plasma, Mean): 0.3 ng/mL
concentration at 1 h ([2]; retina, 2% in GELRITE, 2 × 50 μL, OS (unilateral) treated eye, 1 hr, read-out: Mecamylamine concentration in Retina, Mean): 4160 ng/g
concentration at 1 h ([2]; retina, 2% in GELRITE, 2 × 50 μL, OU (bilateral), 1 hr, read-out: Mecamylamine concentration in Retina, Mean): 14700 ng/g
concentration at 3 h ([2]; retina, 2% in GELRITE, 2 × 50 μL, OU (bilateral), 3 hr, read-out: Mecamylamine concentration in Retina, Mean): 563 ng/g
concentration at 6 h ([2]; retina, 2% in GELRITE, 2 × 50 μL, OU (bilateral), 6 hr, read-out: Mecamylamine concentration in Retina, Mean): 310 ng/g
concentration at 1 h ([2]; retina, fellow (vehicle) eye of unilaterally dosed animals, 1 hr, read-out: Mecamylamine concentration in Retina, Mean): 781 ng/g
concentration at 1 h ([2]; vitreous humor, 2% in GELRITE, 2 × 50 μL, OS (unilateral) treated eye, 1 hr, read-out: Mecamylamine concentration in Vitreous humor, Mean): 37.8 ng/g
concentration at 1 h ([2]; vitreous humor, 2% in GELRITE, 2 × 50 μL, OU (bilateral), 1 hr, read-out: Mecamylamine concentration in Vitreous humor, Mean): 131 ng/g
concentration at 3 h ([2]; vitreous humor, 2% in GELRITE, 2 × 50 μL, OU (bilateral), 3 hr, read-out: Mecamylamine concentration in Vitreous humor, Mean): 17.7 ng/g
concentration at 6 h ([2]; vitreous humor, 2% in GELRITE, 2 × 50 μL, OU (bilateral), 6 hr, read-out: Mecamylamine concentration in Vitreous humor, Mean): 5.9 ng/g
concentration at 1 h ([2]; vitreous humor, fellow (vehicle) eye of unilaterally dosed animals, 1 hr, read-out: Mecamylamine concentration in Vitreous humor, Mean): 10.4 ng/g
Mecamylamine concentration in Choroid, Mean ([2]; 2% in GELRITE, 2 × 50 μL, OS (unilateral) treated eye, 1 hr, listed as MEC): 2806.7 ng/g
Mecamylamine concentration in Choroid, Mean ([2]; 2% in GELRITE, 2 × 50 μL, OU (bilateral), 1 hr, listed as MEC): 14170.0 ng/g
Mecamylamine concentration in Choroid, Mean ([2]; 2% in GELRITE, 2 × 50 μL, OU (bilateral), 3 hr): ~500 ng/g
Mecamylamine concentration in Choroid, Mean ([2]; 2% in GELRITE, 2 × 50 μL, OU (bilateral), 3 hr, listed as MEC): 1086.0 ng/g
Mecamylamine concentration in Choroid, Mean ([2]; 2% in GELRITE, 2 × 50 μL, OU (bilateral), 6 hr, listed as MEC): 264.5 ng/g
Mean levels in the plasma and packed cells ([2]; 2% in GELRITE, highest one hour after bilateral dosing): 5 to 38 ng/mL
Mecamylamine concentration in Choroid, Mean ([2]; fellow (vehicle) eye of unilaterally dosed animals, 1 hr, listed as MEC): 705.7 ng/g
Mecamylamine concentration in blood Cell Fraction, Mean ([2]; group MEC OS 1 hr): 0.0 ng/mL
Mecamylamine concentration in blood Plasma, Mean ([2]; group MEC OS 1 hr): 0.0 ng/mL
Mecamylamine concentration in blood Cell Fraction, Mean ([2]; group MEC OU 1 hr): 0.0 ng/mL
Mecamylamine concentration in blood Plasma, Mean ([2]; group MEC OU 1 hr): 0.0 ng/mL
Mecamylamine concentration in blood Cell Fraction, Mean ([2]; group MEC OU 3 hr): 0.0 ng/mL
Mecamylamine concentration in blood Plasma, Mean ([2]; group MEC OU 3 hr): 0.0 ng/mL
Mecamylamine concentration in blood Cell Fraction, Mean ([2]; group MEC OU 6 hr): 0.0 ng/mL
Mecamylamine concentration in blood Plasma, Mean ([2]; group MEC OU 6 hr): 0.0 ng/mL
best-corrected visual acuity [3]: no change in best corrected visual acuity
pupil size [3]: none of the subjects tested showing an increase in pupil diameter
